Reference: patent publication US11535606B2, “Substituted quinoline-8-carbonitrile derivatives with androgen receptor degradation activity and uses thereof” (ACCUTAR BIOTECHNOLOGY INC., priority 2019, dated 2022)

biological target: T1, androgen receptor (AR) (Homo sapiens, UniProt P10275, T878A); test: AR degradation activity in LNCAP cells (Western blot); format: cell-based; conditions: 24 hours after administration, DC50 = concentration needed for 50% target protein degradation
T1 construct: endogenous in cells; host or cells: LNCAP
T1 sequence (P10275 1-920 T878A): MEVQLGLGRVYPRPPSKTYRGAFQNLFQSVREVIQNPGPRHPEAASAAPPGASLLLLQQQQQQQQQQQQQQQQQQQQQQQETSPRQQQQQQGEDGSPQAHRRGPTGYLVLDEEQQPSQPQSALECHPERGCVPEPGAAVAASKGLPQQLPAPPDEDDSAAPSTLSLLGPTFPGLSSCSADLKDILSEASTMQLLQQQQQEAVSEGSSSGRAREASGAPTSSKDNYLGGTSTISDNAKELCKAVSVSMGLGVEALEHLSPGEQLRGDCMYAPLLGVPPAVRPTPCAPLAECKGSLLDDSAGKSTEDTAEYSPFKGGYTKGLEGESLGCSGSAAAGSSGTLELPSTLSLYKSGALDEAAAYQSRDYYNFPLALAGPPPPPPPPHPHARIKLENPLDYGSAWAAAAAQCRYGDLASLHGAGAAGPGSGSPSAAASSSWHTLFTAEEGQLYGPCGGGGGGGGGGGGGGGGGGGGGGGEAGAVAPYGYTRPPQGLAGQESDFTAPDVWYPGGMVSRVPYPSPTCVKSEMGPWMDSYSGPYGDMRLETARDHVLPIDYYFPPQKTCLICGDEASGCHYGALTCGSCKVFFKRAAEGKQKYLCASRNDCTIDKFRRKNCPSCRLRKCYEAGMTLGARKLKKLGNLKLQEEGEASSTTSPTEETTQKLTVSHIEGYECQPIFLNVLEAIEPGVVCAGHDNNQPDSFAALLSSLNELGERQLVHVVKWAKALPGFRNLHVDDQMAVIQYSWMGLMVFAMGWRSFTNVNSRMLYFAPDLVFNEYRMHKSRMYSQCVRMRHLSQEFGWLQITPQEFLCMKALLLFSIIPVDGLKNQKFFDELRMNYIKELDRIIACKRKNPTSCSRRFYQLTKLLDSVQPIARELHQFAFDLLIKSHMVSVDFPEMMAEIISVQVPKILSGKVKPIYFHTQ
Protocol: LNCAP, VCAP and 22Rv1 cells were plated in 24-well plates at 1.5×10E5 cells/well in the RPMI growth medium containing 10% FBS and 1% Penicillin Streptomycin, and then incubated at 37° C. overnight. The following day, the test compound was administered to the cells by using 1000× compound stock solution prepared in DMSO at various concentrations. After administration of the compound, the cells were then incubated at 37° C. for 24 hours. Upon completion, the cells were washed with PBS and protein was collected in Laemmli sample buffer (1×; VWR International). Proteins in cell lysate were separated by SDS-PAGE and transferred to Odyssey nitrocellulose membranes (Licor) with Iblot® dry blotting transfer system (ThermoFisher). Nonspecific binding was blocked by incubating membranes with Intercept Blocking Buffer (Licor) for 1 hour at room temperature with gentle shaking. The membranes were then incubated overnight at 4° C. with Primary antibodies rabbit anti-AR (1:1,000, Cell Signaling, 5153) and mouse anti-GAPDH (1:5,000, Santa Cruz Biotechnology, sc-47724) diluted in Intercept Blocking Buffer containing 0.1% Tween 20. After washing 3 times with TBS-T, the membranes were incubated with IRDye® 800CW goat anti-mouse IgG (1:20,000, Licor) or IRDye® 800CW goat anti-rabbit IgG (1:20,000, Licor) for 1 hour. After TBS-T washes, membranes were rinsed in TBS and scanned on Odyssey® CLx Imaging System (Licor). The bands were quantified using Image Studio™ Software (Licor).
Table 4 summarizes the androgen receptor (AR) degradative activity of exemplary compounds in LNCAP, VCAP and 22Rv1 cell lines 24 hours after administration. DC50: compound concentration needed for 50% target protein degradation.

SMILES | DC50 [µM]
N#Cc1ccc(O[C@H]2CC[C@H](NC(=O)c3cnc(N4CC[C@@H](CN5CCN(c6ccc7c(c6)C(=O)N(C6CCC(=O)NC6=O)C7=O)CC5)C4)nc3)CC2)c2cccnc12 (stereo partly drawn) [Compound 3-54] | < 0.01
CN(CC1CCN(c2ccc(C(=O)NC3CCC(Oc4ccc(C#N)c5ncccc45)CC3)cn2)CC1)C1CC(Oc2ccc3c(c2)C(=O)N(C2CCC(=O)NC2=O)C3=O)C1 (stereo not drawn) [Compound 3-9] | < 0.01
N#Cc1ccc(OC2CCC(NC(=O)c3ccc(N4CCC(CN5CCN(c6cc7c(cc6F)C(=O)N(C6CCC(=O)NC6=O)C7=O)CC5)CC4)cc3)CC2)c2cccnc12 (stereo not drawn) [Compound 3-49] | > 0.1
CC(C)N(CC1CCN(c2ccc(C(=O)NC3CCC(Oc4ccc(C#N)c5ncccc45)CC3)cn2)CC1)C1CC(Oc2ccc3c(c2)C(=O)N(C2CCC(=O)NC2=O)C3=O)C1 (stereo not drawn) [Compound 3-11] | < 0.01
N#Cc1ccc(O[C@H]2CC[C@H](NC(=O)c3cnc(N4CC[C@H](CN5CCN(c6ccc7c(c6)C(=O)N(C6CCC(=O)NC6=O)C7=O)CC5)C4)nc3)CC2)c2cccnc12 (stereo partly drawn) [Compound 3-55] | < 0.01
N#Cc1ccc(O[C@H]2CC[C@H](NC(=O)c3cnc(N4CCC(CN5CCN(c6cc7c(cc6F)C(=O)N(C6CCC(=O)NC6=O)C7=O)CC5)CC4)c(F)c3)CC2)c2cccnc12 (stereo partly drawn) [Compound 3-53] | < 0.01
N#Cc1ccc(OC2CCC(NC(=O)c3cnc(N4CCC(CN5CCN(c6cc7c(cc6F)C(=O)N(C6CCC(=O)NC6=O)C7=O)CC5)CC4)nc3)CC2)c2cccnc12 (stereo not drawn) [Compound 3-51] | < 0.01
N#Cc1ccc(OC2CCC(NC(=O)c3cnc(N4CCC(CN5CCN(c6ccc7c(c6)C(=O)N(C6CCC(=O)NC6=O)C7=O)CC5)CC4)cn3)CC2)c2cccnc12 (stereo not drawn) [Compound 3-17] | < 0.01
N#Cc1ccc(OC2CCC(NC(=O)c3ccc(N4CCC(CN5CCN(c6cc7c(cc6F)C(=O)N(C6CCC(=O)NC6=O)C7=O)CC5)CC4)c(F)c3)CC2)c2cccnc12 (stereo not drawn) [Compound 3-50] | < 0.01
CC(C)N(CC1CCN(c2ccc(C(=O)NC3CCC(Oc4ccc(C#N)c5ncccc45)CC3)nn2)CC1)C1CC(Oc2ccc3c(c2)C(=O)N(C2CCC(=O)NC2=O)C3=O)C1 (stereo not drawn) [Compound 3-43] | < 0.01
N#Cc1ccc(OC2CCC(NC(=O)c3cnc(N4CCC(CN5CCN(c6cc7c(cc6F)C(=O)N(C6CCC(=O)NC6=O)C7=O)CC5)CC4)cn3)CC2)c2cccnc12 (stereo not drawn) [Compound 3-52] | < 0.01
N#Cc1ccc(OC2CCC(NC(=O)c3ccc(N4CCC(CN5CCN(c6cc7c(cc6F)C(=O)N(C6CCC(=O)NC6=O)C7=O)CC5)CC4)nc3)CC2)c2cccnc12 (stereo not drawn) [Compound 3-35] | < 0.01
